In patent publication US10214540B2, “Compound having agonistic activity on somatostatin receptor, and use thereof for medical purposes” (ONO PHARMACEUTICAL CO., LTD., priority 2012, dated 2019):

Experiments:
[1] = biological target: somatostatin receptor subtype 3 (SSTR3) (Homo sapiens, UniProt P32745); conditions: reported in background art; cited from earlier work
[2] = biological target: somatostatin receptor subtype 1 (SSTR1) (Homo sapiens, UniProt P30872); conditions: reported in background art; cited from earlier work
[3] = biological target: somatostatin receptor subtype 2 (SSTR2) (Homo sapiens, UniProt P30874); conditions: reported in background art; cited from earlier work
[4] = biological target: somatostatin receptor subtype 4 (SSTR4) (Homo sapiens, UniProt P31391); conditions: reported in background art; cited from earlier work
[5] = Evaluation of the cell toxicity using cultured human hepatocyte (ATP, Celltiter-Glo); assay type: cell-based; conditions: cultured adherent human hepatocytes (thawed from frozen); cultured human hepatocytes, 24 hours, ATP concentration; read-out: IC50 (50% inhibitory compound concentration of the emission of light, cell toxicity)
Experimental: (§1) Evaluation of the cell toxicity using cultured human hepatocyte.
(§2) Frozen adherent human hepatocyte was thawed and suspended in hepatocyte cultured medium (HCM) purchased from Lonza, and then seeded in 96 wells plate coated by collagen. The hepatocytes were cultured overnight in the incubator (5% carbon dioxide, 95% air, 37° C.) and its medium was replaced with medium including test compounds ([…]) and cultured for 24 hours more. The cell toxicity was evaluated by measurement of ATP concentration in the cells. Specifically, using Promega Celltiter-Glo luminescent assay kit made by Promega KK, the cells were dissolved in an accompanying assay buffer and the ATP concentration released from the cells was determined by an emission of light of the luciferin-luciferase enzyme activity. The emission of light was measured by Molecular device's SpectraMax plate reader. A degree of toxicity was shown 50% inhibitory compound concentration of the emission of light (IC50).

[6] = biological target: T1, human SSTR2 (Homo sapiens, UniProt P30874); test: Evaluation of SSTR2 agonist activity using human SSTR2 expressing cells (inhibition of Forskolin-stimulated cAMP production in SSTR2-CHO-K1); assay type: cell-based; conditions: read-out: EC50 of agonist activity against human SSTR2
T1 construct: Myc; expressed in transfected cells
Experimental: Evaluation of SSTR2 Agonist Activity Using Human SSTR2 Expressing Cells
CHO-K1 (−) were cultured using Ham's F-12 (including FBS (10%), penicillin (100 U/mL) and streptomycin (0.1 mg/mL)) as medium. The transduced cells were cultured using the medium above with geneticin (1 mg/ml).
The plasmid pIRESneo-Myc/hSSTR2 was transduced into CHO-K1 (−) cell using Lipofectamine 2000 (Invitrogen). After 48 hours, the medium was changed to the medium including 1 mg/mL Geneticin, overexpressing cells were selected and stably overexpressing cells (SSTR2-CHO-K1) were established.
Human SSTR2 agonist activity of test compounds was evaluated by following procedure using inhibition activity against intracellular cyclic AMP (cAMP) production stimulated by Forskolin as an indicator. The SSTR2-CHO-K1 cells suspended in Ham's F-12 medium (including fetal bovine serum (10%), penicillin (100 U/mL), streptomycin (0.1 mg/mL)) including 0.25 mg/mL Geneticin was seeded in 96 wells plate (4.0×10^4 cells/0.1 mL/1 well). After 1 day, the medium was removed and the cells were washed with 0.1 mL of wash buffer solution [0.1% bovine serum albumin (BSA), Hank's Balanced Salt Solution (HBSS) including 20 mmol/L 4-(2-hydroxyethyl)-1-piperazine ethanesulfonic acid (HEPES)] twice. To the cells added 0.06 mL/well assay buffer [500 nmol/L 3-isobutyl-1-methylxanthine (IBMX), 0.1% BSA, 20 mmol/L HBSS including HEPES], and incubated for 15 min. under 5% CO2 and 37° C. Next, to the cells added 0.06 mL/well assay buffer including test compounds of the double concentration of final concentration and 0.02 mmol/L Forskolin, and incubated for 30 min. under 5% CO2 and 37° C. After that, to the cells added 0.12 mL/well Assay/Lysis buffer included with cAMP-Screen® kit (Applied Biosystems®), and incubated for 30 min. under 5% CO2 and 37° C. The concentration of c-AMP is determined by ELISA test according to manual included with the kit.

[7] = tested on: Growth Hormone (GH) secretion; test: Evaluation of Growth Hormone (GH) secretory inhibitory activity using rat (GHRH-evoked); assay type: in vivo
Experimental: Evaluation of Growth Hormone (GH) secretory inhibitory activity using rat.
Test compounds dissolved in vehicle (distillated water (Otsuka jouryuusui, Otsuka Pharmaceutical Factory, Inc.) or vehicle only was administered to rat (7-week-old, male Crl: CD (SD) IGS rat (CHARLES RIVER LABORATORIES JAPAN, INC.)) orally, and 27 min. later, 50 mg/kg of sodium pentobarbital (Somunopentil® Kyoritsu Seiyaku) was administered by tail vein injection to be anesthetized. Three minutes after administration of sodium pentobarbital, 0.01 mg/kg of growth hormone-releasing hormone (GHRH, Bachem) was administered by tail vein injection to evoke GH secretion. To measure blood concentration of GH, 0.2 mL blood sample from cervical vein was collected 5 minutes after administration of GHRH. The blood samples were treated with centrifugation at 13,000 g at 4° C. for 5 min. to obtain plasma sample. Blood concentration of GH was determined by Rat/Mouse Growth Hormone ELISA (Millipore) according to the procedure manual.
Test compounds dissolved in vehicle (distillated water (Otsuka jouryuusui, Otsuka Pharmaceutical Factory, Inc.) or vehicle only was administered to rat (7-week-old, male Crl: CD (SD) IGS rat (CHARLES RIVER LABORATORIES JAPAN, INC.)) orally, and 7 hours 57 minutes later, 50 mg/kg of sodium pentobarbital (Somunopentil® Kyoritsu Seiyaku) was administered by tail vein injection to be anesthetized. Three min. after administration of sodium pentobarbital, 0.01 mg/kg of growth hormone-releasing hormone (GHRH, Bachem) was given by tail vein injection to evoke GH secretion. Procedure after that was same as [Procedure (A)]

[8] = tested on: cultured human hepatocyte; test: Evaluation of the cell toxicity using cultured human hepatocyte (ATP, Celltiter-Glo); assay type: cell-based; conditions: IC50 of Biological Example 4 / EC50 of Biological Example 1
Experimental: as §1, §2

[9] = tested on: gastric acid secretion; test: Evaluation of the gastric-acid secretion inhibitory activity using rat (gastric outlet tied off); assay type: in vivo; conditions: dose of 0.3 mg/kg, subcutaneously
Experimental: Evaluation of the gastric-acid secretion inhibitory activity using rat.
After closing the laparotomy department, vehicle only (saline (Otsuka seishokuchu, Otsuka Pharmaceutical Factory, Inc.) or test compounds which were dissolved in vehicle were administered subcutaneously immediately, and the rats were recovered from anesthesia. After 2 hours from tying gastric outlet, the rats were treated with abdominal operation under isoflurane anesthesia again, pinched cardiac end of the stomach with forceps and exsanguinated to death. After stomach contents were centrifugalized at 500 g for 15 min. and the supernatant was separated as gastric fluid, the volume of gastric fluid was determined based on weight (mL/100 g BW). Furthermore, acid concentration of gastric fluid (mmol/mL) was determined by back titration using COM-1600ST automatic titrator (Hitachi High-Technologies Corporation (Hiranuma sangyo Co., Ltd.)).

[10] = 1 mg/kg orally, Procedure (B): administered 8 hours before

T1 sequence (P30874 whole entry): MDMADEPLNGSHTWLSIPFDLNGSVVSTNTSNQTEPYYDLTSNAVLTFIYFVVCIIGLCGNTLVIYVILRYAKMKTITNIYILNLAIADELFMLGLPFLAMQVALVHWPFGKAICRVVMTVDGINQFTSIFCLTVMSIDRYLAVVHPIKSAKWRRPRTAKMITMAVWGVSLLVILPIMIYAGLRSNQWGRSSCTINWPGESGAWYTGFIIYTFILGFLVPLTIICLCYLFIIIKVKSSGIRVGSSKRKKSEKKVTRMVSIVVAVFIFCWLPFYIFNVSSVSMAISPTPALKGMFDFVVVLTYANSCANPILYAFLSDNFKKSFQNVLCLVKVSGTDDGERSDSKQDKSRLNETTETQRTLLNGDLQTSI
Sequence of somatostatin receptor subtype 3 (SSTR3) (P32745 whole entry, species assumed): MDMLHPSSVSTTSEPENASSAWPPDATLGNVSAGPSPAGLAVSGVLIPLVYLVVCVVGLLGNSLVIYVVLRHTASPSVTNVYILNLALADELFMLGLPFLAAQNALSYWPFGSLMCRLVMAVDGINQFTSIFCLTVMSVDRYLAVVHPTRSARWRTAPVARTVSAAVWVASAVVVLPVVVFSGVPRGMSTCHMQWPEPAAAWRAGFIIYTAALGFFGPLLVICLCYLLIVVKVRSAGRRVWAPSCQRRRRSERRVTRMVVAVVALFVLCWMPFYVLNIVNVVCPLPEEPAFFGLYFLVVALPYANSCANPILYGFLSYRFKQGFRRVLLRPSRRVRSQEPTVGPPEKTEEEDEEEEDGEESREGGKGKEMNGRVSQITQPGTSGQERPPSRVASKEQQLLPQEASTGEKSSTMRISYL
Sequence of somatostatin receptor subtype 4 (SSTR4) (P31391 whole entry, species assumed): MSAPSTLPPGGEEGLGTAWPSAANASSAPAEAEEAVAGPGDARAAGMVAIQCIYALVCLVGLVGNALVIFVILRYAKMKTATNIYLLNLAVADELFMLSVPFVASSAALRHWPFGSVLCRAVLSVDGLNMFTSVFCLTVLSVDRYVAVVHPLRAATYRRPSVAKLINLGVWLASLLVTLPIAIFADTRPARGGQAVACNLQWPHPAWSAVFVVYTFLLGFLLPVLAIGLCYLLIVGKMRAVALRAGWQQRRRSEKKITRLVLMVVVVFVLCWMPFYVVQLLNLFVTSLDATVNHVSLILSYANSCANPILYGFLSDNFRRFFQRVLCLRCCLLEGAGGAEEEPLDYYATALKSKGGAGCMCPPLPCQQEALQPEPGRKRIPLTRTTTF
Sequence of somatostatin receptor subtype 2 (SSTR2) (P30874 whole entry, species assumed): as the sequence (P30874 whole entry) above
Sequence of somatostatin receptor subtype 1 (SSTR1) (P30872 whole entry, species assumed): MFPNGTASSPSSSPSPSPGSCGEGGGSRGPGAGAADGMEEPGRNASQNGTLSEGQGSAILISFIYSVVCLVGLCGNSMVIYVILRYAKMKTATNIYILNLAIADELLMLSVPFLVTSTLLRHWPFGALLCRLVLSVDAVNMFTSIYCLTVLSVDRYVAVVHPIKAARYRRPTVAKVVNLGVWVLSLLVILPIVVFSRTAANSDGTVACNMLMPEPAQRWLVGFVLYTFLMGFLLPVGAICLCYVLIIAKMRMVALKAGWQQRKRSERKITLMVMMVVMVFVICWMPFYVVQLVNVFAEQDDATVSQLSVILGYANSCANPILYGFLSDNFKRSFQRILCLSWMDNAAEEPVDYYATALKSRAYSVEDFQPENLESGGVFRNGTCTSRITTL

Compound | EC50 [6] | IC50 at 24 h [5] | ratio of GH secretion inhibition [7, 10] | ratio of IC50 (hepatocyte toxicity) divided by SSTR2 agonist activity (EC50) [8] | other results
CC(C)[C@@H]1NC(=O)[C@H](CCCCN)NC(=O)[C@@H](Cc2c[nH]c3ccccc23)NC(=O)[C@H](Cc2ccc(O)cc2)NC(=O)[C@@H](NC(=O)[C@H](N)Cc2ccc3ccccc3c2)CSSC[C@@H](C(=O)N[C@H](C(N)=O)[C@@H](C)O)NC1=O [Lanreotide acetate] |  |  |  |  | binding affinity to SSTR3 (in words) [1]: moderate affinity; binding to SSTR1 (in words) [2]: not to bind; binding affinity to SSTR2 (in words) [3]: high affinity; binding to SSTR4 (in words) [4]: not to bind
Cc1cc(C)cc(-c2cnc3cc(Cl)c(-c4cnn(C)c4)cc3c2OCC[C@H]2CCCCN2)c1 [formula (M), reference compound] |  | 13 µM |  |  | 
Cc1cc(C)cc(-c2cncc(-c3ccc(C(F)(F)F)cc3)c2N2CCC(N)CC2)c1 [Example 26(15), 1-{3-(3,5-dimethylphenyl)-5-[4-(trifluoromethyl)phenyl]-4-pyridinyl}-4-piperidinamine] |  |  |  |  | ratio of GH secretion inhibition ([7]; 3 mg/kg orally, Procedure (B): administered 8 hours before): 92%

Now from value to compound, other results behind:

EC50 [6] | Compound | IC50 at 24 h [5] | ratio of GH secretion inhibition [7, 10] | ratio of IC50 (hepatocyte toxicity) divided by SSTR2 agonist activity (EC50) [8] | other results
0.034 nM | Cc1cc(F)cc(-c2cncc(/C=C/c3cncc(C#N)c3)c2N2CC[C@H]3NCCO[C@@H]3C2)c1 (racemic) [Example 36(8), 5-[(E)-2-{5-(3-fluoro-5-methylphenyl)-4-[rac-(4aR,8aR)-octahydro-6H-pyrido[3,4-b][1,4]oxazin-6-yl]-3-pyridinyl}vinyl]nicotinonitrile] | 69 µM | 83% | 2,030,000 times | 
0.006 nM | Cc1cc(C)cc(NC(=O)c2cncc(-c3cc(C)cc(C)c3)c2N2CCC(CN)CC2)c1 [Example 2(20), 4-[4-(aminomethyl)-1-piperidinyl]-N,5-bis(3,5-dimethylphenyl)pyridine-3-carboxamide] | 40 µM |  | 6,670,000 times | ratio of GH secretion inhibition ([7]; 3 mg/kg orally, Procedure (A): administered 30 min before): 97%; ratio of gastric acid secretion inhibition [9]: 89%
0.016 nM | Cc1cc(F)cc(-c2cncc(/C=C/c3cccc(C#N)c3)c2N2CCC(N)CC2)c1 [Example 36(5), 3-{(E)-2-[4-(4-amino-1-piperidinyl)-5-(3-fluoro-5-methylphenyl)-3-pyridinyl]vinyl}benzonitrile] | 19 µM | 92% | 1,190,000 times | 
0.049 nM | Cc1cc(F)cc(-c2cncc(-c3ccc(C(F)(F)F)cc3)c2N2CCC(N)CC2)c1 [Example 26(24), 1-{3-(3-fluoro-5-methylphenyl)-5-[4-(trifluoromethyl)phenyl]-4-pyridinyl}-4-piperidinamine] | 35 µM | 91% | 710,000 times | 
